For series [1], the system named is CFA induced chronic inflammatory pain. The series can be described thus: CFA induced chronic inflammatory pain, von Frey tactile allodynia. It counts as in vivo, rats. Particulars: for % Increase From Base Line, 8% topical: 8% (w/v) topical. The procedure: In this test, tactile allodynia is assessed with calibrated von Frey filaments. […] Animals were allowed to recover from the anaesthesia and the baseline thermal and mechanical nociceptive thresholds of all animals were assessed one week after the administration of CFA. All animals were habituated to the experimental equipment for 20 minutes on the day prior to the start of the experiment. The test and control articles were administrated to the animals, and the nociceptive thresholds were measured at defined time points after drug administration to determine the analgesic responses to each of the six available treatments. The time points used were previously determined to show the highest analgesic effect for each test compound. […] Each enantiomer was dosed at 10, 30, 100 or 200 mg/Kg. The plasma concentration achieved with each dose was also determined and the reversal of pain response (as the % increase from baseline threshold) is plotted as a function of plasma concentration. The (S)-enantiomer of the invention was also administered topically to the animals in varying dosages (1%, 2%, 4% and 8% (w/v)) and the nociceptive thresholds measured at defined time points after drug administration to determine the analgesic responses to each of the available treatments. The time points used were previously determined to show the highest analgesic effect for each test compound. The response thresholds of the animals to tactile stimuli were measured using the Model 2290 Electrovonfrey anesthesiometer (IITC Life Science, Woodland Hills, Calif.) following the Hargreaves test. The animals were placed in an elevated Plexiglas enclosure set on a wire mesh surface. After 15 minutes of accommodation, a pre-calibrated Von Frey hair was applied perpendicularly to the plantar of the ipsilateral hind paws of the animals, with sufficient force, measured in grams, to elicit a crisp response of the paw. The response indicated a withdrawal from the painful stimulus and constituted the efficacy endpoint. […] This cut off force is used because it represent approximately 10% of the animals' body weight and it serves to prevent raising of the entire limb due to the use of stiffer hairs, which would change the nature of the stimulus. The data were expressed as percent increase from baseline threshold measured in grams.

The subject of series [2] is chronic constriction injury neuropathic pain. The series can be described thus: Neuropathic pain model; chronic constriction injury (CCI). The format is in vivo. Particulars: topical ointment containing 2% (w/v).
Series [3] relates to histamine-induced pruritis. Put plainly: Histamine-induced pruritis in vivo assay. Set-up: species or system male ICR mice. Particulars: scored over 40 minutes. How it is done: Histamine induces pruritis (itching) in humans. Accordingly, this assay evaluates the efficacy of topically and orally administered (S)-enantiomer of the invention on histamine-induced pruritis in male ICR mice. […] One day prior to testing, the scapular regions on the animals were shaved with hair clippers. On the testing day, the animals were habituated for 60 minutes in the test chamber comprising of a clear plastic tube placed vertically on a flat surface. After the habituation period, the animals were removed from the plastic tube, placed in a restrainer, and injected with histamine at the shaved scapular region. The injections were made intradermally into the skin in small injection volumes (10 μL) using a Hamilton syringe. […] Immediately after the injections, the animals were returned to the test chambers and observed by cameras placed above the test chambers for a total of 50 minutes. The cameras were connected to a computer where digital video files were created, saved, and analyzed. The number of itching bouts was scored over 40 minutes. An “itching bout” was defined as the lifting of a hind leg, using it to scratch the scapular region, and then placing it back on the ground. […] The data were analyzed using GraphPad Prism 5 statistical analysis software and an unpaired t-test was used for univariate analysis. Results are expressed as mean±SEM. […]

The target of another series is hNav1.7 (Homo sapiens, UniProt Q15858). To be noted: (S)- versus (R)-enantiomer.
Sequence of hNav1.7 (Q15858 whole entry): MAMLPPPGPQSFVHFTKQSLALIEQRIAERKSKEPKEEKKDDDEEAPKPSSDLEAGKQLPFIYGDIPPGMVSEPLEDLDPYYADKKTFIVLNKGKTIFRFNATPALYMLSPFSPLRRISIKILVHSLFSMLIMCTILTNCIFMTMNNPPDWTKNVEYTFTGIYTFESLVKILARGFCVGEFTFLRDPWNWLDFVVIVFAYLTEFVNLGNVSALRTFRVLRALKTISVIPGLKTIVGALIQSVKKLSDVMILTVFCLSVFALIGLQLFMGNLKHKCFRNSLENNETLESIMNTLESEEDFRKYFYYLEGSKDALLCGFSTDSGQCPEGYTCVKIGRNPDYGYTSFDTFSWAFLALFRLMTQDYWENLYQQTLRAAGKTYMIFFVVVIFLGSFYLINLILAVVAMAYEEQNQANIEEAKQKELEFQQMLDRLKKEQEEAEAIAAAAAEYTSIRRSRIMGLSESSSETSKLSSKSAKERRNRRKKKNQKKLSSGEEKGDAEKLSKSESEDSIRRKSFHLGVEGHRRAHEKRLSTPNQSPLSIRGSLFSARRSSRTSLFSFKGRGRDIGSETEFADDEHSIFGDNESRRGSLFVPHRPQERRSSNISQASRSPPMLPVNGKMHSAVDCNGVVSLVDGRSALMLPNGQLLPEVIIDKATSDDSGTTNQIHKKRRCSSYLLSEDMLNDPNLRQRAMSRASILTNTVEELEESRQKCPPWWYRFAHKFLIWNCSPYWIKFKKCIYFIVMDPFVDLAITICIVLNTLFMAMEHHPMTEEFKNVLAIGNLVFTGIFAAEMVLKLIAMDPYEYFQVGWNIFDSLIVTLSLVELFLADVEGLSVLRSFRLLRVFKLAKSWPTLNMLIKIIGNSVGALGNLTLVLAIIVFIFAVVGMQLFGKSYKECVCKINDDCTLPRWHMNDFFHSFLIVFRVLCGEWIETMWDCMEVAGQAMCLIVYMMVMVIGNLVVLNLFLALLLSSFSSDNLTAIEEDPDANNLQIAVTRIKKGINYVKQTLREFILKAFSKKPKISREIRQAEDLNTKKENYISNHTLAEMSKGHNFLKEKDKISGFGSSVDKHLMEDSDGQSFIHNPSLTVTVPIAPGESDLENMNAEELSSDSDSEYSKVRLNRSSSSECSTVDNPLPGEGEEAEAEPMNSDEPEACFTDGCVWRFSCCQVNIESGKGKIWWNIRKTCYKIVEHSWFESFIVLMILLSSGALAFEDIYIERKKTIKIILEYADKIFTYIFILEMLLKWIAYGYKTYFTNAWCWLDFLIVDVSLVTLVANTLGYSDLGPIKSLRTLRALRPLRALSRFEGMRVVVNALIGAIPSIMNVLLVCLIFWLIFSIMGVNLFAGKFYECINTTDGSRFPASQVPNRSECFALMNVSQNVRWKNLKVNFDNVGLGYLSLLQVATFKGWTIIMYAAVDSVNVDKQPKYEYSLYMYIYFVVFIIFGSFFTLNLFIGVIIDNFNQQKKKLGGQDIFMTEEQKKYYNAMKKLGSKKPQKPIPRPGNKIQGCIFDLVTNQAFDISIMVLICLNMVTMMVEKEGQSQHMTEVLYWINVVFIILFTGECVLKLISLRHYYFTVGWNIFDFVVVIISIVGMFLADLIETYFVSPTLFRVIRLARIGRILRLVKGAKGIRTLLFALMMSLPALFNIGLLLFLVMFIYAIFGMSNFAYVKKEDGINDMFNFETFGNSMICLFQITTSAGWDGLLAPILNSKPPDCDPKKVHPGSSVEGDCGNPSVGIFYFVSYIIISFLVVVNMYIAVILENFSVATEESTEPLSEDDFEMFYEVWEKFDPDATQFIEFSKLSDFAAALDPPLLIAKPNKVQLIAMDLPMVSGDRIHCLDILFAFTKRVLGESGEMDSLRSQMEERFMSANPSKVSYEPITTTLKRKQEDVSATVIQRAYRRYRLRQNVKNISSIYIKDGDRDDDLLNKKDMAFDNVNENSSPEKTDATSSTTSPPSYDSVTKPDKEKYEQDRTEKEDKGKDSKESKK
Series [4] deals with local skin toxicity/irritancy.
[5] abbreviates: von Frey mechanical paw withdrawal threshold.
Where [6] appears, read: von Frey mechanical paw withdrawal threshold, listed as (S)-enantiomer.

Consider one compound from patent publication US9480677B2, “Enantiomers of spiro-oxindole compounds and their uses as therapeutic agents” (Xenon Pharmaceuticals Inc., priority 2009, dated 2016).

For the compound `O=C1N(Cc2ccc(C(F)(F)F)o2)c2ccccc2[C@]12COc1cc3c(cc12)OCO3` [(I-S), (S)-1′-{[5-(trifluoromethyl)furan-2-yl]methyl}spiro[furo[2,3-f][1,3]benzodioxole-7,3′-indol]-2′(1′H)-one], the “maximal effect, reversal of pain response” value in series [1] (oral dosing, 200 mg/Kg, compared with the other enantiomer) is listed as “greater maximal effect”. For the same compound, in series [1] (setting [5]), the “% Increase From Base Line, 1% topical” value is on record as 0.62% and the “% Increase From Base Line, 8% topical” value is given as 45.06%. Moreover, in series [1] (setting [6]), the “% Increase From Base Line, 1% topical” value is reported as “did not demonstrate an observable increase” and the “% Increase From Base Line, 8% topical” value is reported as 45.1%. Also, the “% Increase From Base Line, 2% topical” value in series [1] (von Frey mechanical paw withdrawal threshold, 2% (w/v) topical) amounted to 16.71%. For the same compound, the “% Increase From Base Line, 4% topical” value in series [1] (von Frey mechanical paw withdrawal threshold, 4% (w/v) topical) was 28.79%. For the same compound, the “reversal of pain responses, percent increase from baseline” value in series [2] was “reversed pain responses”. In addition, in series [3] (50 mg of 8% (w/v) topical, n=16, vehicle 134.3±13.31), the “total number of itching bouts” value is reported as 89.00±10.51 itching bouts. In addition, in series [3] (50 mg/Kg oral gavage, n=8, vehicle 42.88±6.667), the “total number of itching bouts” value came to 17.25±6.310 itching bouts. On hNav1.7, the “inhibition potency against hNav1.7 compared to the (R)-enantiomer” value is recorded as above 1000 fold. Moreover, the “Serious Adverse Events (SAEs) or deaths” value in series [4] (4% and 8% (w/w) ointment daily for 21 days, healthy subjects) is reported as “No Serious Adverse Events (SAEs) or deaths were reported”. For the same compound, in series [4] (human, in vivo), the “cumulative irritation scores versus placebo ointments and negative control (0.9% saline)” value is “No difference was observed”; the “electrocardiography: pulse rate, quiescent resting state, QTc intervals” value is reported as “did not demonstrate clinically significant changes”; the “severity of Adverse Events (AEs)” value is “mild or moderate in severity”; the “vital signs, physical examinations, laboratory assessments” value is “no clinically significant changes from baseline”. The “skin irritation score, maximum” value in series [4] (human, in vivo, 21 days) is recorded as at most 3.
